Data: patent US10174045B2, “Benzopyrylium compounds” (Pierce Biotechnology, Inc., priority 2012, dated 2019)
Marks after values point to notes of the source that are not given here.

Columns and labels:
[1] = Excitation/emission properties of dye NHS esters; format: physicochemical
Description: The following properties of V03-07005, V08-16072, V13-06190, and V17-03019 were compared with commercially available dyes. DyLight 680 NHS is a non-pegylated benzopyrylium dye and the ‘V’ dyes are pegylated dyes described above.

lamin B1 in U2OS cells = assay: Immunofluorescence cell based assay, detection of lamin B1 with dye-GAR; details: for quenching with molar excess: lamin B1 experiment
Description: (§1) In the indicated experiments, the inventive compounds and commercial dye were evaluated for immunofluorescence in a cell based assay using the following protocol. Frozen U20S cell plates stored at −80° C. were thawed for 30 minutes at 50° C. Storage buffer (PBS) was removed and the cells were permeabilized for 15 minutes with 0.1% Triton-X100 in 1×PBS buffer (100 μl/well). The cell plate was blocked for 60 minutes in 2% BSA/PBS-0.1% Triton-X100. Primary antibody, either rabbit anti-lamin B1 or rabbit anti-HDAC2 (10 μg/ml), diluted in 2% BSA/PBS-0.1% Triton-X100 was added to the plate and incubated for one hour at room temperature. Control wells contained only 2% BSA/PBS-0.1% Triton-X100 blocker. After incubation, antibody solution was removed from the plate and the plate was washed three times with 100 μl/well PBS-0.5% Tween-20 and one time with 100 μl/well PBS. GAR secondary antibodies labeled with various molar excess of the inventive or commercial compound were diluted to 4 μg/ml in PBS and incubated for one hour at room temperature. Plates were washed three times with 100 μl/well PBST and once with 100 μl/well PBS, and Hoechst (diluted to 0.1 μg/ml in PBS) was added to each well (100 μl/well). The plates were scanned on ArrayScan Plate Reader.
Quantitative analysis of the data of FIGS. 11-13, expressed as Mean Total Intensity, which is the average total intensity of all pixels within a defined area or defined primary object such as a nucleus, is shown below; “Neg” indicates negative control.

NCoR2 in U2OS cells = assay: Immunofluorescence cell based assay, detection of NCoR2 with dye-GAM; details: for quenching with molar excess: NCoR2 experiment
Description: (§2) In the indicated experiments, the inventive compounds and commercial dye were evaluated for immunofluorescence in a cell based assay using the following protocol. Frozen U20S cell plates which were stored at −80° C. were thawed for 30 minutes at 50° C. Storage buffer (PBS) was removed and cells were permeabilized for 15 minutes with 0.1% Triton-X100 in 1×PBS buffer (100 μl/well). The cell plate was blocked for 60 minutes in 2% BSA/PBS-0.1% Triton-X100. Primary antibody, either mouse anti-ezrin (1.3 μg/ml) or mouse anti-NCoR2 (20 μg/ml), diluted in 2% BSA/PBS-0.1% Triton-X100 was added to the plate and incubated for one hour at room temperature. Control wells contained only 2% BSA/PBS-0.1% Triton-X100 blocker. After incubation, the antibody solution was removed from the plate and the plate was washed three times with 100 μl/well of PBS-0.5% Tween-20 and one time with 100 μl/well PBS. GAM secondary antibodies labeled with various molar excess of the inventive or commercial compound were diluted to 4 μg/ml in PBS and incubated for one hour at room temperature. The plates were washed three times with 100 μl/well of PBST and once with 100 μl/well PBS, and Hoechst (diluted to 0.1 μg/ml in PBS) was added to each well (100 μl/well). The plates were scanned on ArrayScan Plate Reader.
NCoR2 was detected in U2OS cells with V03-07005-GAM, V08-16072-GAM, V13-06190-GAM, V17-03019-GAM, DyLight 680-GAM, and Alexa Fluor 680-GAM at a 2.5×, 5×, 10×, and 15× molar excesses. Quantitative analysis of the data, expressed as Mean Total Intensity, which is the average total intensity of all pixels within a defined area or defined primary object such as a nucleus, is shown below, where “Neg” indicates the negative control condition.

HDAC2 in U2OS cells = assay: Immunofluorescence cell based assay, nuclear detection of HDAC2 with dye-GAR; details: for quenching with molar excess: HDAC2 experiment
Description: as §1
Quantitative analysis of the data of FIGS. 14-16, expressed as Mean Total Intensity, which is the average total intensity of all pixels within a defined area or defined primary object such as a nucleus, is shown below; “Neg” indicates negative control.

U2OS cells = assay: Immunofluorescence cell based assays, overall summary; details: summary of all immunofluorescence experiments
Description: as §1
In the indicated experiments, the inventive compounds and commercial dye were evaluated for immunofluorescence in a cell based assay using the following protocol. Frozen U20S cell plates which were stored at −80° C. were thawed for 30 minutes at 50° C. Storage buffer (PBS) was removed and cells were permeabilized for 15 minutes with 0.1% Triton-X100 in 1×PBS buffer (100 μl/well). The cell plate was blocked for 60 minutes in 2% BSA/PBS-0.1% Triton-X100. Primary antibody, either mouse anti-ezrin (1.3 μg/ml) or mouse anti-NCoR2 (20 μg/ml), diluted in 2% BSA/PBS-0.1% Triton-X100 was added to the plate and incubated for one hour at room temperature. Control wells contained only 2% BSA/PBS-0.1% Triton-X100 blocker. […] The plates were scanned on ArrayScan Plate Reader.

ezrin in U2OS cells = assay: Immunofluorescence cell based assay, detection of ezrin with dye-GAM; details: 2.5×-15× molar excess
Description: as §2, with “The plates were washed three times with 100 μl/well of PBST and once with 100 μl/well PBS, and Hoechst (diluted to 0.1 μg/ml in PBS) was added to each well (100 μl/well).” left out
Quantitative analysis of the data of FIGS. 17-19, expressed as Mean Total Intensity, which is the average total intensity of all pixels within a defined area or defined primary object such as a nucleus, is shown below; “Neg” indicates negative control.

mouse IgG immunoglobulin = assay: Functional plate assay of dye-GAM conjugates, LiCor Odyssey 700 channel; format: binding; details: GAM conjugated with 5× molar excess, FIG. 6-7
Description: Performance of dye-GAM and dye-GAR conjugates was evaluated in a functional assay. Wells of a 96-well black clear-bottom plate were coated with target protein mouse or rabbit IgG immunoglobulin. One hundred μl mouse or rabbit IgG, at 10 μg/ml, was applied to the corresponding wells in row 1. The target proteins were serially diluted 1:1 from the wells in rows 2 to 7 using 100 μl PBS. One hundred μl of samples from the wells in row 7 were discarded. One hundred μl PBS was added to the wells in row 8. Plates were incubated overnight at 4° C. and then blocked 2×200 μl with Thermo Scientific SuperBlock® Blocking Buffer. The coated plates were washed 2×200 μl with PBS-Tween and 1×200 μl with PBS. Based on the calculated concentrations, conjugates were diluted 1:250 (of 1 mg/ml) in PBS, added to the corresponding plates (100 μl/well) and then incubated for one hour in the dark. The plates were washed with 2×200 μl with PBS-Tween and 1×200 μl with PBS and filled with PBS buffer (100 μl/well) prior to scanning the black clear-bottom plates on LiCor Odyssey at 700 channel, to detect fluorescence intensity.
As shown in FIGS. 1-10, RFU and/or signal to background ratio (S/B) of the dyes conjugated to the indicated antibody were compared at various concentrations, using the indicated conjugation conditions.

SMILES	Em [1] [nm]	Ex ([1]; EtOH)	Ex ([1]; PBS)	further results
COCCOCCOCCOCCN(CCCS(=O)(=O)[O-])c1ccc2c(C(C)(C)C)cc(/C=C/C=C3/N(CCOCCOCCOCCOCCC(=O)ON4C(=O)CCC4=O)c4ccc(S(=O)(=O)[O-])cc4C3(C)CCCS(=O)(=O)[O-])[o+]c2c1.[Na+].[Na+] (stereo not shown) [V13-06190-NHS]	712	691 (EtOH) nm	679 (PBS)* nm	
COCCOCCOCCOCCN(CCCS(=O)(=O)[O-])c1ccc2c(C(C)(C)C)cc(/C=C/C=C3/N(CCOCCOCCOCCOCCC(=O)O)c4ccc(S(=O)(=O)[O-])cc4C3(C)CCCS(=O)(=O)[O-])[o+]c2c1.[Na+].[Na+] (stereo not shown) [Compound V13-06190, (E)-2-((E)-3-(4-tert-butyl-7-((3-sulfonatopropyl)(2,5,8,11-tetraoxatridecan-13-yl)amino)chromenylium-2-yl)allylidene)-1-(14-carboxy-3,6,9,12-tetraoxatetradecyl)-3-methyl-3-(3-sulfonatopropyl)indoline-5-sulfonate]		690 nm	about 675 nm	quenching with molar excess (lamin B1 in U2OS cells): gradually quenching from 2.5× molar excess condition; quenching with molar excess (NCoR2 in U2OS cells): gradually quenched from the 2.5× molar excess condition; quenching with molar excess (HDAC2 in U2OS cells): gradually quenching from 2.5× molar excess condition; quenching with molar excess (U2OS cells): gradual quenching from 2.5× molar excess condition
COCCOCCOCCOCCN(CCCS(=O)(=O)[O-])c1ccc2c(C(C)(C)C)cc(/C=C/C=C3/N(CCCCCC(=O)ON4C(=O)CCC4=O)c4ccc(S(=O)(=O)[O-])cc4C3(C)CCCS(=O)(=O)[O-])[o+]c2c1.[Na+].[Na+] (stereo not shown) [V08-16072-NHS]	712	691 (EtOH) nm	679 (PBS)* nm	
COCCOCCOCCOCCN(CCCS(=O)(=O)[O-])c1ccc2c(C(C)(C)C)cc(/C=C/C=C3/N(CCCS(=O)(=O)[O-])c4ccc(S(=O)(=O)[O-])cc4C3(C)CCCC(=O)O)[o+]c2c1.[Na+].[Na+] (stereo not shown) [Compound V17-03019, (E)-2-((E)-3-(4-tert-butyl-7-((3-sulfonatopropyl)(2,5,8,11-tetraoxatridecan-13-yl)amino)chromenylium-2-yl)allylidene)-3-(3-carboxypropyl)-3-methyl-1-(3-sulfonatopropyl)indoline-5-sulfonate]		690 nm	about 675 nm	
COCCOCCOCCOCCN(CCOCCOCCOCCOC)c1ccc2c(C(C)(C)C)cc(/C=C/C=C3/N(CCCS(=O)(=O)[O-])c4ccc(S(=O)(=O)[O-])cc4C3(C)CCCC(=O)O)[o+]c2c1.[Na+] (stereo not shown) [Compound V03-07005, (E)-2-((E)-3-(4-tert-butyl-7-(di2,5,8,11-tetraoxatridecan-13-ylamino)chromenylium-2-yl)allylidene)-3-(3-carboxypropyl)-3-methyl-1-(3-sulfonatopropyl)indoline-5-sulfonate]		690 nm	about 675 nm	staining / S/B performance, in words (lamin B1 in U2OS cells; lamin B1, 2.5×-15× molar excess): best performing benzopyrylium dye; staining / S/B performance, in words (ezrin in U2OS cells): best performing benzopyrylium dye; staining / S/B performance, in words (NCoR2 in U2OS cells; NCoR2, 2.5×-15× molar excess): best performing benzopyrylium dye; staining / S/B performance, in words (HDAC2 in U2OS cells; HDAC2, 2.5×-15× molar excess): best performing benzopyrylium dye; binding intensity (RFU), in words (mouse IgG immunoglobulin): performed best of the benzopyrylium dyes; staining performance, in words (U2OS cells): best performing benzopyrylium dye
COCCOCCOCCOCCN(CCCS(=O)(=O)[O-])c1ccc2c(C(C)(C)C)cc(/C=C/C=C3/N(CCCCCC(=O)O)c4ccc(S(=O)(=O)[O-])cc4C3(C)CCCS(=O)(=O)[O-])[o+]c2c1.[Na+].[Na+] (stereo not shown) [Compound V08-16072, (E)-2-((E)-3-(4-tert-butyl-7-((3-sulfonatopropyl)(2,5,8,11-tetraoxatridecan-13-yl)amino)chromenylium-2-yl)allylidene)-1-(5-carboxypentyl)-3-methyl-3-(3-sulfonatopropyl)indoline-5-sulfonate]		690 nm	about 675 nm	quenching with molar excess (lamin B1 in U2OS cells): gradually quenching from 2.5× molar excess condition; quenching with molar excess (NCoR2 in U2OS cells): gradually quenched from the 2.5× molar excess condition; quenching with molar excess (HDAC2 in U2OS cells): gradually quenching from 2.5× molar excess condition; quenching with molar excess (U2OS cells): gradual quenching from 2.5× molar excess condition
COCCOCCOCCOCCN(CCCS(=O)(=O)[O-])c1ccc2c(C(C)(C)C)cc(/C=C/C=C3/N(CCCS(=O)(=O)[O-])c4ccc(S(=O)(=O)[O-])cc4C3(C)CCCC(=O)ON3C(=O)CCC3=O)[o+]c2c1.[Na+].[Na+] (stereo not shown) [V17-03019-NHS]	712	691 (EtOH) nm	675 (PBS)* nm	
COCCOCCOCCOCCN(CCOCCOCCOCCOC)c1ccc2c(C(C)(C)C)cc(/C=C/C=C3/N(CCCS(=O)(=O)[O-])c4ccc(S(=O)(=O)[O-])cc4C3(C)CCCC(=O)ON3C(=O)CCC3=O)[o+]c2c1.[Na+] (stereo not shown) [V03-07005-NHS]	708	690 (EtOH) nm	675 (PBS)* nm	
